The values below come from US20110118353A1, “METHOD OF HORMONE SUPPRESSION IN HUMANS” (N. V. Organon, priority 2007, published 2011).

Molecules are shown by their SMILES.

Holding throughout (type): in vivo, human
In test [1] the test system is LH. Nature of the test: Experiment 1: single rising oral dose trial, serum LH (DELFIA). The note with it: healthy male volunteers, single oral doses 0.5-30 mg, 0 to 12 hours post-dose, vs placebo. The procedure: (§1) A double-blind, cross-over, placebo controlled, single rising oral dose trial with compound 1 was carried out in healthy male volunteers to assess its tolerability, safety, pharmacokinetic and pharmacodynamic profile.
(§2) This was a double-blind, placebo-controlled, single rising oral dose study in 16 subjects. Each subject was assigned to one of 4 dosing groups and received 3 successive single oral doses of compound 1 and placebo in a four-way cross-over design. Subjects were male volunteers with a good physical and mental health, aged 18-45 years, body mass index […]. […]
(§3) LH and FSH were measured using a DELFIA assay. […] Testosterone was measured using a DELFIA testosterone assay; a solid phase fluoro-immuno-assay based on competition between Europium-labeled Testosterone and sample Testosterone.
(§4) Effect of treatment was characterised by calculating areas under the effect curve (AUE) over 0-4 h and 0-final assessment time periods. AUEs were calculated with the linear trapezoidal rule using protocol times. […] All measures were analysed using analysis of variance with factors subject and treatment and with the prevalue as covariate. A linear contrast on dose group was calculated with dose groups assigned in ascending order.

Test [2] relates to FSH. The test can be described thus: Experiment 1: single rising oral dose trial, serum FSH (DELFIA). The note with it: healthy male volunteers, single oral doses 0.5-30 mg, 0-12 h period; slower than LH. The method, then:
as §1, §2, §3, §4

The test system of test [3] is testosterone. Nature of the test: Experiment 1: single rising oral dose trial, serum testosterone (DELFIA). The settings on record: healthy male volunteers, single oral doses 0.5-30 mg, 0-12 h period; slower than LH. The procedure:
as §1, §2, §3, §4

The test system of test [4] is LH. The test can be described thus: Experiment 2: single-dose crossover trial, serum LH (DELFIA). The note with it: healthy male volunteers, single oral doses 5, 13, 20 mg. The text has this: (§5) A single-dose, double-blind, placebo-controlled, randomized, crossover trial to evaluate visual effects of compound 1 in healthy male volunteers
(§6) This was a double-blind, placebo-controlled, four-period crossover study involving the administration of three single oral doses of compound 1 and placebo in 24 healthy male subjects. For each subject the compound 1 treatments were randomized in ascending order, each treatment period was separated by at least 3 days wash-out. Subjects were male volunteers with a good physical and mental health, aged 18-45 years, body mass index 18-28 kg/m^2.
(§7) A freeze dried cake of compound 1 (Batch No CW122) was reconstituted with de-ionized water BP and subsequently diluted with gelatin/mannitol to 50 mL solution for oral administration. Dose levels of compound 1 used in this trial were: 5 mg, 13 mg and 20 mg
(§8) Serum samples for LH, FSH and testosterone analysis were taken at time points: pre-dose and 20′, 45′, 1h10′, 1h35′, 2h, 2h25′, 2h50′, 3h15′, 4h, 6h, 8h, 12h, 16h and 24h post-dose. Serum was stored at −40° C.
(§9) LH and FSH were measured using a DELFIA assay. The DELFIA LH and DELFIA FSH assays are solid phase, two-site fluoroimmunometric assays based on the direct sandwich technique. Testosterone was measured using a DELFIA testosterone assay; a solid phase fluoro-immuno-assay based on competition between Europium-labeled Testosterone and sample Testosterone.
(§10) Descriptive statistics for serum FSH, LH and testosterone concentrations were calculated, both as absolute values and as percentage of baseline. In addition the following parameters were calculated: Cmin, tmin, Cmean,0-24, both Cmin and Cmean,0-24 were expressed in absolute values and as percentage of baseline. No formal statistical analysis was done on these PD parameters. Only descriptive statistics were calculated by dose. Furthermore, summary plots of the PD parameters versus treatment were made

For test [5], the system named is FSH. The test can be described thus: Experiment 2: single-dose crossover trial, serum FSH (DELFIA). The settings on record: healthy male volunteers, single oral doses 5, 13, 20 mg.
From the text: as §5, §6, §7, §8, §9, §10

For test [6], the system named is testosterone. Nature of the test: Experiment 2: single-dose crossover trial, serum testosterone (DELFIA). The note with it: healthy male volunteers, single oral doses 5, 13, 20 mg.
From the text: as §5, §6, §7, §8, §9, §10

Test [7] relates to LH. Nature of the test: Experiment 3: multiple oral dose study, serum LH (DELFIA). The settings on record: healthy male volunteers, 4, 8, 16 mg q.d. or 12 mg b.i.d. oral. The text has this:
(§11) A phase I, double-blind, placebo-controlled, parallel group, multiple oral dose and multiple ascending dose study with compound 1 in healthy male volunteers to assess the safety, tolerability, pharmacokinetics and pharmacodynamics of compound 1 after single, multiple and multiple ascending doses.
(§12) This was a single center, double-blind, placebo-controlled, parallel group design. A total of 40 subjects were randomized over 5 groups of 8 subjects; within each group 6 subjects received multiple oral doses of compound 1 and 2 subjects received placebo. Subjects were male volunteers with a good physical and mental health, aged 18-45 years, body mass index 18-28 kg/m^2.
(§13) Freeze dried cake of compound 1 (Batch No. CW 186) was supplied in 10 mL vials (50 mg active entity in 10 mL vials). The freeze dried cake was reconstituted with sterile de-ionized water B.P and subsequently diluted with sterile de-ionized water to a dose volume of 50 mL. […]
(§14) LH and FSH were measured using a DELFIA assay. […] Testosterone was measured using a DELFIA testosterone assay; a solid phase fluoro-immuno-assay based on competition between Europium-labeled Testosterone and sample Testosterone. […]

The test system of test [8] is FSH. The test can be described thus: Experiment 3: multiple oral dose study, serum FSH (DELFIA). The settings on record: healthy male volunteers, 4, 8, 16 mg q.d. or 12 mg b.i.d. oral.
From the text: as §11, §12, §13, §14

Test [9] deals with testosterone. Nature of the test: Experiment 3: multiple oral dose study, serum testosterone (DELFIA).
From the text: as §11, §12
Freeze dried cake of compound 1 (Batch No. CW 186) was supplied in 10 mL vials (50 mg active entity in 10 mL vials). The freeze dried cake was reconstituted with sterile de-ionized water B.P and subsequently diluted with sterile de-ionized water to a dose volume of 50 mL. Compound 1 was administered as an oral solution (50 mL) according to the following schedule: • Group 1: a single dose of 4 mg compound 1 on day 1 followed by once daily dosing of 4 mg compound 1 on days 4 to 13 • Group 2: a single dose of 8 mg compound 1 on day 1 followed by once daily dosing of 8 mg compound 1 on days 4 to 13 • Group 3: a single dose of 16 mg compound 1 on day 1 followed by once daily dosing of 16 mg compound 1 on days 4 to 13 • Group 4: a single dose of 12 mg compound 1 on day 1, twice daily dosing of 12 mg compound 1 on days 4 to 12 followed by a single dose of 16 mg compound 1 on day 13
For group 5 a dose titration was used. In this group no samples for LH, FSH and testosterone were taken. […]
as §14

The subject of test [10] is LH. The test can be described thus: Experiment 4: single oral dose pharmacodynamic study, serum LH (DELFIA). The settings on record: healthy male volunteers, single oral doses 4, 8, 16 mg.
From the text: (§15) A phase I, double-blind, parallel groups, placebo-controlled, cross-over, pharmacodynamic study with compound 1 in healthy male volunteers to assess glycinergic responses in cerebro-spinal fluid and plasma after single oral doses
(§16) This was a double-blind, placebo-controlled, parallel group trial in 15 subjects, randomized to 3 parallel groups of 5 subjects each. The subjects received two single doses in a randomized cross-over design. There was an interval of at least 3 days between the drug administrations. Subjects were male volunteers with a good physical and mental health, aged 18-45 years, body mass index 18-28 kg/m^2.
(§17) A freeze dried cake of compound 1 (Batch No CW122) was reconstituted with sterile water and subsequently further diluted with orange juice to a total volume of 200 mL for oral administration. Dose levels used were: • Group 1: 8 mg compound 1 and […] • Group 2: 16 mg compound 1 and placebo • Group 3: 8 mg compound 1 and 4 mg compound 1
(§18) Serum samples for LH, FSH and testosterone analysis were taken at time points: pre-dose and 1, 2, 3, 4, 6 and 12 hours post dose. Serum was stored at −40° C.
as §3

Test [11] deals with FSH. The test can be described thus: Experiment 4: single oral dose pharmacodynamic study, serum FSH (DELFIA). The settings on record: healthy male volunteers, single oral doses 4, 8, 16 mg.
From the text: as §15, §16, §17, §18, §3

In test [12] the test system is testosterone. Nature of the test: Experiment 4: single oral dose pharmacodynamic study, serum testosterone (DELFIA). The settings on record: healthy male volunteers, single oral doses 4, 8, 16 mg.
From the text: as §15, §16, §17, §18, §3

[13] abbreviates: 0-24 h, compared with adjusted Cmin.
Setting [14] is: decrease generally largest after 16 mg.

With `COc1ccc2c(c1)CC[C@H](CN(C)CC(=O)O)[C@@H]2c1ccccc1.Cl` [compound 1], in test [1], the “treatment effect on LH levels (decrease)” value is given as “statistically significant treatment effect”. The “FSH concentrations, linear contrast on dose” value in [2] is given as “significant linear decreases with rising doses”. Further, the “testosterone concentrations, linear contrast on dose” value in test [3] is “significant linear decreases with rising doses”. Also, in test [4], the “adjusted Cmin LH” value is “decrease with increasing active dose” and the “time of largest LH decrease post dose” value was “approximately 4 h”. For the same compound, in test [4] (setting [13]), the “adjusted Cmean LH” value is “decreases are smaller and less consistent”. In test [4] (decreases larger at increasing doses), the “LH concentrations after treatment” value is listed as “decrease after compound 1 treatment”. In addition, in [5], the “adjusted Cmin FSH” value was “decrease with increasing active dose” and the “effect on FSH concentrations” value was “not clearly visible”. Besides, the “adjusted Cmean FSH” value in test [5] (setting [13]) was “decreases are smaller and less consistent”. For the same compound, the “adjusted Cmin Testosterone” value in test [6] is “decrease with increasing active dose”. Moreover, the “adjusted Cmean testosterone” value in test [6] (setting [13]) is “decreases are smaller and less consistent”. The “testosterone concentrations after treatment” value in test [6] (decreases larger at increasing doses, somewhat slower than LH) is given as “decrease after compound 1 treatment”. Moreover, in test [7], the “time of maximum decreases in LH after dosing” value came out at 2 h. Moreover, the “mean LH values” in test [7] (setting [14]) is given as “decreased following dosing”. Besides, the “time of maximum decrease in FSH values post-dose” value in test [8] lay in the range of 6 to 12 h. The “mean FSH values” in test [8] (setting [14]) is “decreased following dosing”. Besides, the “time post-dose until which testosterone levels dropped” value in test [9] (healthy male volunteers, 4, 8, 16 mg q.d. or 12 mg b.i.d. oral) was 6 to 12 h. For the same compound, in test [9] (healthy male volunteers, 4, 8, 16 mg q.d. or 12 mg b.i.d. oral, partly circadian rhythm, afterwards back to approximately baseline), the “testosterone levels after dosing” value is “dropped sharply after dosing”. Moreover, in [9] (largest decreases in the 16 mg q.d. and 12 mg b.i.d groups), the “magnitude of the testosterone decrease compared with placebo” value is “generally larger following administration of compound 1”. Further, the LH suppression result in test [10] was “suppressed to some extent”. Further, in [11], the “effect on FSH” value was “No effect”. The testosterone suppression entry in test [12] is listed as “suppressed to some extent”.
